# Source: patent US5786367A, “Cyclic amide derivatives” (Otsuka Pharmaceutical Co., Ltd., priority 1994, dated 1998)
# Counter-ions that a name gives are not always drawn. Like-named read-outs stand apart in the source and are kept apart here.
# How the values were obtained:
# [1] = test system: skin erythema; assay: Activity for inhibiting skin erythema caused by ultraviolet radiation; type: in vivo, albino guinea pig (Hartley strain, female, 7-8 week age); conditions: for inhibition in vivo at 3 %: Cavia porcellus; for 50% inhibitory concentration (IC50) for inhibiting the skin erythema: three concentrations within 0.1 to 10%
# Method: The hairs covering in the back of albino guinea pig (Hartley strain, female, 7-8 week age) were shaved by using an electric hair clippers and a shaver. In the next day, the guinea pig was fixed in Bowlman's cage, then a light shield tape (adhesive plaster for patch test), having 4 round holes of 1.5 cm in diameter was adhered on the hair clipped portion so as to provide 4 sites (round holes) to be exposed to the ultraviolet rays. […] Each one of the test sample solutions was prepared by dissolving each test compounds in three kinds of concentrations within 0.1 to 10%, and applied.
# [2] = test system: skin homogenate of guinea pig; assay: Activity for inhibiting the formation of lipid peroxides (ultraviolet-B irradiated skin homogenate, TBA method); type: biochemical, albino guinea pig (Hartley strain, female); conditions: test compound 10^-4 M; UV 9.5 mW/cm^2, 60 minutes
# Method: The activity for inhibiting the formation of lipid peroxides which are increasingly formed by exposed to the ultraviolet-B radiation to the skin homogenate of guinea pig was determined by a procedure of thiobarbituric acid method (TBA method).
# The activity for inhibiting the formation of lipid peroxides can be evaluated by degree of decreasing the optical absorbance of the condensate of thus formed malondialdehyde with thiobarbituric acid, by adding a test sample of the cyclic amide derivative of the present invention to the homogenate.
# That is, the hairs covering in the back of an albino guinea pig (Hartley strain, female) were clipped by using an electric hair clippers under anesthesia. After the enucleation of the hair clipped portion of the skin, the subcutaneous tissue of this skin was removed in cold physiological saline. Distilled water in an amount of 9 times by weight of the skin tissue was added to this skin subcutaneous tissue, then was subjected to homogenation and centrifugation (600 g, for 5 minutes) to obtain the supernatant liquid. 5 Microliters each of test sample solutions of various concentrations was added to 0.5 ml each of the supernatant liquid, then the ultraviolet ray in the intensity of 9.5 mW/cm^2 was irradiated for 60 minutes by using fluorescent lamps (TOSHIBA FL-20SE, manufactured by Toshiba Corporation) as a light source. As to the reference sample solution, the solvent for dissolution of the test compound was used in place of the test sample solution. After ultraviolet radiation, the amount of lipid peroxide being formed in the sample solution (TBA value) was measured by TBA method (cf. Analytical Biochemistry, 1979, Vol. 95, pp. 351-358), and the inhibition rate of lipid peroxide formation shown by the test sample was calculated by the following formula: [formula]
# [3] = 3% concentration of test compound, 10 μl topical, UV 1.3-1.5 mW/cm^2 for 30 minutes, measured 24 hours later, read-out: Rate of activity for inhibiting the skin erythema
Molecule,Inhibition rate of lipid peroxide formation [2],"inhibition in vivo at 3 % [1, 3] [%]",also measured
"5,7-diallyl-3,4-dihydro-6-hydroxy-1-(2-hydroxybutyl)-2(1H)-quinolinone [Example 110]",–,–,"Rate of activity for inhibiting the skin erythema ([1]; 3% concentration of test compound, 10 μl topical, UV 1.3-1.5 mW/cm^2 for 30 minutes, measured 24 hours later): 44%"
"C=CCc1cc2c(cc1O)CCC(=O)N2CC=C(C)C [Example 10, 7-allyl-3,4-dihydro-6-hydroxy-1-prenyl-2(1H)-quinolinone]",82%,38,–
"C=CCc1cc2c(cc1O)N(CC=C(C)C)C(=O)CC2 [Example 11, 6-Allyl-3,4-dihydro-7-hydroxy-1-prenyl-2(1H)-quinolinone]",70%,–,–
"C=CCOc1cc2c(cc1CC=C)N(CC=C(C)C)C(=O)CC2 [Example 17, 7-allyl-6-allyloxy-3,4-dihydro-1-prenyl-2(1H)-quinolinone]",85%,–,–
"C=CCOc1cc2c(cc1CC=C)CCC(=O)N2CC=C(C)C [Example 20, 6-allyl-7-allyloxy-3,4-dihydro-1-prenyl-2(1H)-quinolinone]",81%,37,–
"C=CCc1cc2c(c(CC=C)c1O)NC(=O)CC2 [Example 25, 6,8-diallyl-3,4-dihydro-7-hydroxy-2(1H)-quinolinone]",78%,–,–
"C=CCc1cc2c(c(CC=C)c1O)CCC(=O)N2 [Example 26, 5,7-diallyl-3,4-dihydro-6-hydroxy-2(1H)-quinolinone]",80%,36,–
"C=CCc1cc2c(c(CC=C)c1O)CCC(=O)N2CC=C(C)C [Example 27, 5,7-diallyl-3,4-dihydro-6-hydroxy-1-prenyl-2(1H)-quinolinone]",82%,60,50% inhibitory concentration (IC50) for inhibiting the skin erythema ([1]; topical): 1.3 concentration in %
"C=CCc1cc2c(c(CC=C)c1O)N(CC=C(C)C)C(=O)CC2 [Example 28, 6,8-diallyl-3,4-dihydro-7-hydroxy-1-prenyl-2(1H)-quinolinone]",80%,30,–
"C=CCc1cc2c(c(CC=C)c1O)CCC(=O)N2c1ccc(OC)cc1 [Example 32, 5,7-diallyl-3,4-dihydro-6-hydroxy-1-(4-methoxyphenyl)-2(1H)-quinolinone]",87%,–,–
"C=CCc1cc2c(c(CC=C)c1O)CCC(=O)N2CCCCCCCCCCO [Example 33, 5,7-diallyl-3,4-dihydro-6-hydroxy-1-(10-hydroxy)-decyl-2(1H)-quinolinone]",83%,18,50% inhibitory concentration (IC50) for inhibiting the skin erythema ([1]; topical): 9.4 concentration in %
"C=CCc1cc2c(c(CC=C)c1O)NC(=O)CO2 [Example 35, 5,7-diallyl-6-hydroxy-3-(2H)-1,4-benzoxazinone]",–,41,50% inhibitory concentration (IC50) for inhibiting the skin erythema ([1]; topical): 5.9 concentration in %
"C=CCc1cc2c(c(CC=C)c1O)OCC(=O)N2CC=C [Example 36, 7-hydroxy-4,6,8-triallyl-3(2H)-1,4-benzoxazinone]",–,26,50% inhibitory concentration (IC50) for inhibiting the skin erythema ([1]; topical): 9.8 concentration in %
"C=CCc1cc2c(c(CC=C)c1O)N(CC=C)C(=O)CO2 [Example 37, 6-hydroxy-4,5,7-triallyl-3(2H)-1,4-benzoxazinone]",–,39,50% inhibitory concentration (IC50) for inhibiting the skin erythema ([1]; topical): 7.7 concentration in %
"C=CCc1cc2c(sc(=O)n2CC=C)c(CC=C)c1O [Example 39, 6-hydroxy-3,5,7-triallylbenzothiazolinone]",82%,42,50% inhibitory concentration (IC50) for inhibiting the skin erythema ([1]; topical): 4.7 concentration in %
"C=CCc1cc2c(c(CC=C)c1O)CCC(=O)N2CCCCl [Example 42, 1-(3-chloropropyl)-5,7-diallyl-3,4-dihydro-6-hydroxy-2(1H)-quinolinone]",–,45,–
C=CCc1cc2c(c(CC=C)c1O)CCC(=O)N2C1C=CCCC1 (stereo not drawn) [Example 45],95%,–,–
C=CCc1cc2c(c(CC=C)c1O)CCC(=O)N2CC=C [Example 46],95%,–,–
C=CCOc1ccc(CN2C(=O)CCc3c2cc(CC=C)c(O)c3CC=C)cc1 [Example 51],95%,–,–
C=CCc1cc2c(c(CC=C)c1O)CCC(=O)N2Cc1ccc(OC)cc1 [Example 52],100%,–,–
C=CCc1cc(CN2C(=O)CCc3c2cc(CC=C)c(O)c3CC=C)ccc1O [Example 53],95%,–,–
C=CCc1cc2c(c(CC=C)c1O)CCC(=O)N2Cc1ccc(C)c(C)c1 [Example 54],96%,–,–

Molecule,Inhibition rate of lipid peroxide formation [2],"inhibition in vivo at 3 % [1, 3] [%]",also measured
"C=CCc1cc2c(c(CC=C)c1O)CCC(=O)N2CC(=O)OCC [Example 57, 5,7-diallyl-1-(ethoxy-carbonylmethyl)-3,4-dihydro-6-hydroxy-2(1H)-quinolinone]",78%,–,–
C=CCc1cc2c(cc1O)CCC(=O)N2CCCCCCCCCCO [Example 62],81%,–,–
C=CCc1ccc2c(c1O)N(CCCCCCCCCCO)C(=O)CC2 [Example 65],79%,–,–
"C=CCc1cc2c(c(CC=C)c1O)CCC(=O)N2CCCNC(=O)CCl [Example 69, 1-(3-chloroacetylaminopropyl)-5,7-diallyl-3,4-dihydro-6-hydroxy-2(1H)-quinolinone]",78%,–,–
"C=CCc1cc2c(c(CC=C)c1O)CCC(=O)N2CCCN1CCCCC1 [Example 71, 5,7-diallyl-3,4-dihydro-6-hydroxy-1-[3-(piperidinopropyl)]-2(1H)-quinolinone]",–,45,–
C=CCc1cc2c(c(CC=C)c1O)CCC(=O)N2CCCN1CCOCC1 [Example 72],–,33,–
C=CCc1cc2c(c(CC=C)c1O)CCC(=O)N2CCCNCCOC [Example 74],68%,–,–
"C=CCc1cc2c(c(CC=C)c1O)CCC(=O)N2CC(N)=O [Example 77, 1-(carbamoylmethyl)-5,7-diallyl-3,4-dihydro-6-hydroxy-2(1H)-quinolinone]",–,50,50% inhibitory concentration (IC50) for inhibiting the skin erythema ([1]; topical): 2.7 concentration in %
"C=CCc1cc(CN2C(=O)CCc3c2ccc(O)c3CC=C)cc(OC)c1O [Example 78, 5-allyl-6-hydroxy-1-(3-allyl-4-hydroxy-5-methoxybenzyl)-3,4-dihydro-2(1H)-quinolinone]",95%,–,–
"C=CCOc1cc2c(cc1C=CC)N(CC=C(C)C)C(=O)CC2 [Example 80, 6-allyloxy-3,4-dihydro-1-prenyl-7-(1-propenyl)-2(1H)-quinolinone]",95%,–,–
"C=CCc1cc2c(c(CC=C)c1O)CCC(=O)N2CCCCNCCCC [Example 84, 1-(4-n-butylaminobutyl)-5,7-diallyl-3,4-dihydro-6-hydroxy-2(1H)-quinolinone.oxalate]",–,31,–
"C=CCc1cc2c(c(CC=C)c1O)CCC(=O)N2CCCCNC(C)(C)CO [Example 85, 5,7-Diallyl-3,4-dihydro-6-hydroxy-1-[4-(2-hydroxy-1,1-dimethyl)ethylamino]butyl-2-(1H)-quinolinone. oxalate]",–,39,–
"C=CCc1cc2c(c(CC=C)c1O)CCC(=O)N2CCCCN(CC)CC [Example 86, 5,7-Diallyl-1-(4-diethylaminobutyl)-3,4-dihydro-6-hydroxy-2(1H)-quinolinone.oxalate]",71%,–,–
"C=CCc1cc2c(c(CC=C)c1O)CCC(=O)N2CCCCn1ccnc1 [Example 87, 5,7-Diallyl-3,4-dihydro-6-hydroxy-1-[4-(imidazol-1-yl)butyl]-2-(1N)-quinolinone.oxalate]",–,28,–
"C=CCc1cc2c(c(CC=C)c1O)CCC(=O)N2CCCn1cnnc1 [Example 88, 5,7-diallyl-3,4-dihydro-6-hydroxy-1-[3-(1,2,4-triazol-4-yl)propyl]-2(1H)-quinolinone]",–,37,–
"C=CCc1cc2c(c(CC=C)c1O)CCC(=O)N2CCCCP(=O)(OCC)OCC [Example 93, 5,7-diallyl-1-(4-diethoxy-phosphorylbutyl)-3,4-dihydro-6-hydroxy-2(1H)-quinolinone]",73%,–,–
C=CCc1cc2c(c(CC=C)c1O)CCC(=O)N2CCCCCCCCCCCC [Example 102],–,57,50% inhibitory concentration (IC50) for inhibiting the skin erythema ([1]; topical): 3.7 concentration in %
C=CCc1cc2c(c(CC=C)c1O)CCC(=O)N2CCCCOC(C)=O [Example 104],–,31,–
C=CCc1cc2c(c(CC=C)c1O)CCC(=O)N2CCCCC(=O)OC [Example 105],–,44,–
"C=CCc1cc2c(c(CC=C)c1O)CCC(=O)N2Cc1ccc(C(=O)OC)cc1 [Example 107, 5,7-Diallyl-3,4-dihydro-6-hydroxy-1-(4-methoxycarbonylbenzyl)-2(1H)-quinolinone]",–,44,–
"C=CCc1cc2c(c(CC=C)c1O)CCC(=O)N2CC(=O)[O-].[Na+] [Example 113, sodium (5,7-diallyl-6-hydroxy-1,2,3,4-tetrahydro-2-oxoquinolin-1-yl)acetate]",–,–,"inhibition in vivo at 3 % ([1]; topical, 24 h, read-out: Rate of activity for inhibiting the skin erythema, 3% concentration of test compound, 10 μl topical, UV 1.3-1.5 mW/cm^2 for 30 minutes, measured 24 hours later): 52%; 50% inhibitory concentration (IC50) for inhibiting the skin erythema ([1]; topical): 2.5 concentration in %"
"Cc1c(C)c2c(c(C)c1O)CCC(C)(CCCC(C)CCCC(C)CCCC(C)C)O2 (stereo not drawn) [Vitamin E, α-tocopherol, reference compound]",77-79%,–,–
